Data as given in ChEMBL document CHEMBL1132507, “Dibasic benzo[B]thiophene derivatives as a novel class of active site directed thrombin inhibitors: 4. SAR studies on the conformationally restricted C3-side chain of hydroxybenzo[B]thiophenes” (Bioorg Med Chem Lett, 1999).

Biological target: Prothrombin (Homo sapiens) (UniProt P00734)
Experiment: Apparent association constant towards thrombin.

In order of rising K ass:
1. COc1cccc2c(Cc3ccc(O[C@@H]4CCCC[C@H]4N4CCCCC4)cc3)c(-c3ccc(OCCN4CCCC4)cc3)sc12  118000 l M-1
2. O=C(c1ccc(O[C@@H]2CCCC[C@H]2N2CCCCCC2)cc1)c1c(-c2ccc(OCCN3CCCC3)cc2)sc2ccccc12  490000 l M-1
3. O=C(c1ccc(O[C@@H]2CCCC[C@H]2N2CCCC2)cc1)c1c(-c2ccc(OCCN3CCCC3)cc2)sc2ccccc12  510000 l M-1
4. Oc1cccc2c(Cc3ccc(O[C@@H]4CCCC[C@H]4N4CCCCC4)cc3)c(-c3ccc(OCCN4CCCC4)cc3)sc12  1.08e+06 l M-1
5. O=C(c1ccc(O[C@@H]2CCCC[C@H]2N2CCCCC2)cc1)c1c(-c2ccc(OCCN3CCCC3)cc2)sc2ccccc12  1.17e+06 l M-1
6. Oc1cccc2sc(-c3ccc(OCCN4CCCC4)cc3)c(Cc3ccc(O[C@@H]4CCCC[C@H]4N4CCCCC4)cc3)c12  1.73e+06 l M-1
7. COc1ccc2c(Cc3ccc(O[C@@H]4CCCC[C@H]4N4CCCCC4)cc3)c(-c3ccc(OCCN4CCCC4)cc3)sc2c1  3.83e+06 l M-1
8. Oc1ccc2c(Cc3ccc(O[C@@H]4CCCC[C@H]4n4ccnc4)cc3)c(-c3ccc(OCCN4CCCC4)cc3)sc2c1  8.08e+06 l M-1
9. Oc1ccc2c(Cc3ccc(O[C@@H]4CCCC[C@H]4N4CCCC4)c(O)c3)c(-c3ccc(OCCN4CCCC4)cc3)sc2c1  1.12e+07 l M-1
10. Oc1ccc2sc(-c3ccc(OCCN4CCCC4)cc3)c(Cc3ccc(OC4CCCC[C@H]4N4CCCCC4)cc3)c2c1 (stereo partly drawn)  1.39e+07 l M-1
11. Oc1ccc2c(Cc3ccc(O[C@@H]4CCCC[C@H]4N4CCOCC4)cc3)c(-c3ccc(OCCN4CCCC4)cc3)sc2c1  1.81e+07 l M-1
12. c1ccc2c(Cc3ccc(O[C@@H]4CCCC[C@H]4N4CCCCC4)cc3)c(-c3ccc(OCCN4CCCC4)cc3)sc2c1  2.04e+07 l M-1
13. COc1ccc2sc(-c3ccc(OCCN4CCCC4)cc3)c(Cc3ccc(O[C@@H]4CCCC[C@H]4N4CCCCC4)cc3)c2c1  3.65e+07 l M-1
14. Oc1ccc2c(Cc3ccc(O[C@@H]4CCC[C@H]4N4CCCCC4)cc3)c(-c3ccc(OCCN4CCCC4)cc3)sc2c1  4.73e+07 l M-1
15. CCN(CC)[C@@H]1CCCC[C@H]1Oc1ccc(Cc2c(-c3ccc(OCCN4CCCC4)cc3)sc3cc(O)ccc23)cc1  4.98e+07 l M-1
16. CN(C)[C@@H]1CCCC[C@H]1Oc1ccc(Cc2c(-c3ccc(OCCN4CCCC4)cc3)sc3cc(O)ccc23)cc1  5.11e+07 l M-1
17. Oc1ccc2c(Cc3ccc(O[C@@H]4CCCC[C@H]4N4CCCC4)c(C(F)(F)F)c3)c(-c3ccc(OCCN4CCCC4)cc3)sc2c1  6.84e+07 l M-1
18. Oc1ccc2c(Cc3ccc(O[C@@H]4CCCC[C@H]4N4CCCCCC4)cc3)c(-c3ccc(OCCN4CCCC4)cc3)sc2c1  7.48e+07 l M-1
19. Oc1ccc2c(Cc3ccc(O[C@@H]4CCCC[C@H]4N4CCCCC4)nc3)c(-c3ccc(OCCN4CCCC4)cc3)sc2c1  9.61e+07 l M-1
20. COc1cc(Cc2c(-c3ccc(OCCN4CCCC4)cc3)sc3cc(O)ccc23)ccc1O[C@@H]1CCCC[C@H]1N1CCCCC1  1.16e+08 l M-1
21. Oc1ccc2c(Cc3ccc(O[C@@H]4CCCC[C@H]4N4CCCC4)c(F)c3)c(-c3ccc(OCCN4CCCC4)cc3)sc2c1  1.21e+08 l M-1
22. COc1cc(Cc2c(-c3ccc(OCCN4CCCC4)cc3)sc3cc(O)ccc23)ccc1O[C@@H]1CCCC[C@H]1N(C)C  1.46e+08 l M-1
23. Oc1ccc2c(Cc3ccc(O[C@@H]4CCCC[C@H]4N4CCCCC4)c(F)c3)c(-c3ccc(OCCN4CCCC4)cc3)sc2c1  2.03e+08 l M-1
24. Oc1ccc2c(Cc3ccc(O[C@@H]4CCCC[C@H]4N4CCCCC4)cc3)c(-c3ccc(OCCN4CCCC4)cc3)sc2c1  2.12e+08 l M-1
25. Oc1ccc2c(Cc3ccc(O[C@@H]4CCCC[C@H]4N4CCCC4)cc3)c(-c3ccc(OCCN4CCCC4)cc3)sc2c1  2.18e+08 l M-1
26. Oc1ccc2c(Cc3ccc(O[C@@H]4CCCC[C@H]4N4CCCC4)c(Br)c3)c(-c3ccc(OCCN4CCCC4)cc3)sc2c1  2.8e+08 l M-1
27. COc1cc(Cc2c(-c3ccc(OCCN4CCCC4)cc3)sc3cc(O)ccc23)ccc1O[C@@H]1CCCC[C@H]1N1CCCC1  3.09e+08 l M-1
28. Cc1cc(Cc2c(-c3ccc(OCCN4CCCC4)cc3)sc3cc(O)ccc23)ccc1O[C@@H]1CCCC[C@H]1N1CCCC1  3.49e+08 l M-1
